A short description of data set [1]: Drug metabolism in human liver S9 fraction assessed as NADPH-dependent glutathione conjugate level at 10 uM after 30 mins by LC-MS/MS analysis. The conditions noted are these: s9, 0.5 h. In kind it is ADME, subcellular.
The target of data set [2] is T1, Prostaglandin E2 receptor EP3 subtype (Homo sapiens, UniProt P43115).
T1 sequence (P43115 whole entry): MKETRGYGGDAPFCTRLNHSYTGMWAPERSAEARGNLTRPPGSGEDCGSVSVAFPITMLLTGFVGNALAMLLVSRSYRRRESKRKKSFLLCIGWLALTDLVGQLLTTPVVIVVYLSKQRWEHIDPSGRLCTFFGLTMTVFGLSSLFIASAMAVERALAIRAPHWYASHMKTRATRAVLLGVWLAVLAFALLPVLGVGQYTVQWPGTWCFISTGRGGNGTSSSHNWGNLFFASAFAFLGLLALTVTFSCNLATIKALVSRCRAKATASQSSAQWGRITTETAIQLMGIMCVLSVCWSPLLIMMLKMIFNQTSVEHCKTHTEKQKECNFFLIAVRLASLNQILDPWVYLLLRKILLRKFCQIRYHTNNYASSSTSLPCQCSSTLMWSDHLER
The experiment in a line: Binding affinity to human EP3.

In data set [3] the target is T2, Prostaglandin D2 receptor (Homo sapiens, UniProt Q13258).
T2 sequence (Q13258 whole entry): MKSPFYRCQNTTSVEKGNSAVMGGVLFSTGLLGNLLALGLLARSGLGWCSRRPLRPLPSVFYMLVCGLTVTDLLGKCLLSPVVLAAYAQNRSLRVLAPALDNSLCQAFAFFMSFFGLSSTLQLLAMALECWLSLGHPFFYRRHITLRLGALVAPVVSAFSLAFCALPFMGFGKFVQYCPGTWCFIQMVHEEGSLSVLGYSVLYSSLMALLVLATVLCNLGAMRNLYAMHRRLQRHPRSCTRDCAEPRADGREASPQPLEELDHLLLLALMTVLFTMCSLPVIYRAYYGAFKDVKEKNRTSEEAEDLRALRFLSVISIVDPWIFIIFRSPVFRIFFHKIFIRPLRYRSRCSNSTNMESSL
In words: Binding affinity at human DP receptor.

Data set [4] is described as follows: Aqueous solubility of the compound. In kind it is physicochemical. The conditions noted are these: buffer.
For data set [5], the target named is Cytochrome P450 2D6 (Homo sapiens, UniProt P10635). The experiment in a line: Inhibition of CYP2D6. In kind it is ADME.
Data set [6] has as its target Cytochrome P450 2C19 (Homo sapiens, UniProt P33261). In words: Inhibition of CYP2C19. The format is ADME.
Data set [7] addresses T3, Cytochrome P450 1A2 (Homo sapiens, UniProt P05177).
T3 sequence (P05177 whole entry): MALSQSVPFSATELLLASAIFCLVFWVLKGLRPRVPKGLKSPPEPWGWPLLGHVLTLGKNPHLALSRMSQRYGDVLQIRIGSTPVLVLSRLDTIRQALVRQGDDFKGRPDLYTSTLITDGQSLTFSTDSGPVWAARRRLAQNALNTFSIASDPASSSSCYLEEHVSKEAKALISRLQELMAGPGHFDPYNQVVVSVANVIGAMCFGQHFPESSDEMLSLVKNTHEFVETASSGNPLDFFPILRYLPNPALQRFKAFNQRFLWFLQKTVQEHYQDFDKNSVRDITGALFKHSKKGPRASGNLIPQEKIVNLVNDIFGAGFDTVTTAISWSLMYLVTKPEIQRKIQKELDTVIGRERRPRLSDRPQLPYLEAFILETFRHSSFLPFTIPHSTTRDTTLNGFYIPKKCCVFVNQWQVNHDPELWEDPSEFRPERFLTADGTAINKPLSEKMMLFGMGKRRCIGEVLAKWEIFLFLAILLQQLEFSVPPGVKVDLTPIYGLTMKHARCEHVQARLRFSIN
The experiment in a line: Inhibition of CYP1A2. In kind it is ADME.

Data set [8] deals with Rattus norvegicus. In words: Dose-normalized AUC in Sprague-Dawley rat at 2 mg/kg, po. In kind it is ADME, organism-based. More on the design: dose 2 mg/kg, route oral. The conditions noted are these: in vivo.
Data set [9] deals with T4, Prostaglandin E2 receptor EP3 subtype (Rattus norvegicus, UniProt P34980).
T4 sequence (P34980 whole entry): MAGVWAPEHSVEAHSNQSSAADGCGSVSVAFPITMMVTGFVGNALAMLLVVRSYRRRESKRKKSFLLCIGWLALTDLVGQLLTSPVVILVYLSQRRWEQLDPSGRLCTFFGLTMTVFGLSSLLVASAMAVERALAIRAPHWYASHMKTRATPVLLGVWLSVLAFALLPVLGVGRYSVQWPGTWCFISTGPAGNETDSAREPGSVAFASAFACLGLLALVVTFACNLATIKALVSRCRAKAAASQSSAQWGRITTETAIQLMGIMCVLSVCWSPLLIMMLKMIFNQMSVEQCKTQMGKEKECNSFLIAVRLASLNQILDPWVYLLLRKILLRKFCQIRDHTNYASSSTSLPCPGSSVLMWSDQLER
In words: Antagonist activity at rat EP3 receptor expressed in human U2OS cells co-expressing Gqi5 assessed as inhibition of PGE2-induced response after 24 hrs by FLIPR assay. The format is functional, cell-based.

Converted amounts (≈) assume the structure as drawn. A value given as a limit tells only on which side of the number the result lay.

Cytochrome P450 2D6, sequence (P10635 whole entry): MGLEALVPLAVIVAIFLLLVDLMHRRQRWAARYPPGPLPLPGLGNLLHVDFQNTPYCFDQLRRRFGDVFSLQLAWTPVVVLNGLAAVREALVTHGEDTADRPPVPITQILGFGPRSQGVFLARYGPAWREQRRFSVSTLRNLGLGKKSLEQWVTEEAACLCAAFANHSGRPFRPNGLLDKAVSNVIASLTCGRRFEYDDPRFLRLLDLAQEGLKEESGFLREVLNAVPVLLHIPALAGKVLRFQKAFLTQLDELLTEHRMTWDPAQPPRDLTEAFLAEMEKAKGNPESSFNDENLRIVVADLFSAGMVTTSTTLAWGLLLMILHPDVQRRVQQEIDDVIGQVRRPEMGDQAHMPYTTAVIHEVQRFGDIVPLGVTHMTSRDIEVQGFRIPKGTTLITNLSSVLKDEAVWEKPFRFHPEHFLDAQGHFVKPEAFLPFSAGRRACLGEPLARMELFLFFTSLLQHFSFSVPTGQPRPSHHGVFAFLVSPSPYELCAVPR
Cytochrome P450 2C19, sequence (P33261 whole entry): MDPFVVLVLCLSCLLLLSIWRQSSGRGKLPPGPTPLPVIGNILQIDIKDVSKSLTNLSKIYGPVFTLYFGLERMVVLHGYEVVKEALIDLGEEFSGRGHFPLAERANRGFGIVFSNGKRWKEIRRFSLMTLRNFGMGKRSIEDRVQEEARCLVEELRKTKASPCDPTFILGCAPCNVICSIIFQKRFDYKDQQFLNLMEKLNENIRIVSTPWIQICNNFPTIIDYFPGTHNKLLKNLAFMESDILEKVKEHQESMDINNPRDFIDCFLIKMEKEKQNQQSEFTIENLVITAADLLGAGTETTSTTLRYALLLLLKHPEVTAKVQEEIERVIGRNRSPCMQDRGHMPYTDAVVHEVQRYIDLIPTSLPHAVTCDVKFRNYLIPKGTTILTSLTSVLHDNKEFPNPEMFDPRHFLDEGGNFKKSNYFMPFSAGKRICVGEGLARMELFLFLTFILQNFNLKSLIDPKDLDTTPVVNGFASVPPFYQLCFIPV

The Ki is the dissociation constant of the complex between target and ligand, obtained from inhibition or displacement. The term IC50 denotes the concentration at which inhibition is half-maximal. As a reminder, the solubility is the dissolved amount per volume that the medium holds. High values mean a readily soluble substance, low ones a poorly soluble substance. Regarding `CC(C)C1(c2ccc(-c3ccc4ccccc4c3)[nH]c2=O)OC(O)=NC1=O` (centres undefined), the Drug metabolism result in data set [1] is on record as “Not Active”. In addition, the Ki in data set [2] is 5.01 nM; in [9] it was 10 nM. Besides, the IC50 in [3], in data set [5], in data set [6] and in data set [7] was above 50.1 µM in each case. In [4], this compound showed a solubility of 193 µM (≈ 69.9 µg/mL). In data set [8], this compound displayed an AUC/dose of 5.5 µg·h/mL/mg/kg.
